Reference: ChEMBL document CHEMBL1201862, “PubChem BioAssay data set” (2004)
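Tested at 5 concentrations; 48 h exposure; 96-well plates; endpoints linearly interpolated, else capped at highest concentration. GI50 = concentration required for 50% inhibition of growth.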 The source made the active and inactive calls. Cut-off read from the data, not from the text of the source: active = GI50 up to about 1.1 µM and inactive = higher.

Experiments:
Test in all cases: DTP human tumour cell line panel, 48 h
[1] = system: Malme-3M
[2] = system: OVCAR-5
[3] = system: NCI-H460
[4] = system: KM-20L2
[5] = system: CCRF-CEM
[6] = system: HT-29
[7] = system: SW-620
[8] = system: M19-MEL
[9] = system: DMS-273
[10] = system: DLD-1
[11] = system: A498
[12] = system: HCT-15
[13] = system: ACHN
[14] = system: CAKI-1

CSc1nc2c(ncn2C2OC(CO)C(O)C(O)C2O)c(=O)n1C (configuration not stated)
GI50 [1]: > 100 µM (inactive) | GI50 [2]: > 100 µM (inactive) | GI50 [3]: > 100 µM (inactive) | GI50 [4]: > 100 µM (inactive) | GI50 [5]: > 100 µM (inactive) | GI50 [6]: > 100 µM (inactive) | GI50 [7]: > 100 µM (inactive) | GI50 [8]: > 100 µM (inactive) | GI50 [9]: > 100 µM (inactive) | GI50 [10]: > 100 µM (inactive) | GI50 [11]: > 100 µM (inactive) | GI50 [12]: > 100 µM

CC(C)=CC1CC(=[N+]=[N-])C(=O)C1(C)C (configuration not stated)
GI50 [13]: > 100 µM (inactive) | GI50 [1]: > 100 µM (inactive) | GI50 [2]: > 100 µM (inactive) | GI50 [3]: 99.5 µM (inactive) | GI50 [4]: > 100 µM (inactive) | GI50 [5]: > 53 µM (inactive) | GI50 [6]: > 31.6 µM (inactive) | GI50 [7]: > 100 µM (inactive) | GI50 [8]: > 100 µM (inactive) | GI50 [10]: > 100 µM (inactive) | GI50 [11]: > 100 µM (inactive) | GI50 [14]: > 100 µM (inactive) | GI50 [12]: 86.5 µM

CNC(=S)N(C)C(=S)Nn1c(=O)c(C)nn(C)c1=S
GI50 [13]: > 100 µM (inactive) | GI50 [2]: > 100 µM (inactive) | GI50 [3]: > 100 µM (inactive) | GI50 [4]: > 100 µM (inactive) | GI50 [5]: > 100 µM (inactive) | GI50 [6]: > 100 µM (inactive) | GI50 [7]: > 100 µM (inactive) | GI50 [8]: > 100 µM (inactive) | GI50 [9]: > 100 µM (inactive) | GI50 [10]: > 100 µM (inactive) | GI50 [11]: > 100 µM (inactive) | GI50 [12]: > 100 µM

O=c1nc2n(c3nsnc13)CCO2
GI50 [13]: > 100 µM (inactive) | GI50 [1]: > 100 µM (inactive) | GI50 [2]: > 100 µM (inactive) | GI50 [3]: > 100 µM (inactive) | GI50 [4]: > 100 µM (inactive) | GI50 [5]: > 100 µM (inactive) | GI50 [6]: > 100 µM (inactive) | GI50 [7]: > 100 µM (inactive) | GI50 [8]: > 100 µM (inactive) | GI50 [9]: > 100 µM (inactive) | GI50 [10]: > 100 µM (inactive) | GI50 [14]: > 100 µM (inactive) | GI50 [12]: > 100 µM

CC12CCCC(C#N)(C1)OC2=O (configuration not stated)
GI50 [13]: > 100 µM (inactive) | GI50 [1]: > 100 µM (inactive) | GI50 [2]: > 100 µM (inactive) | GI50 [3]: > 100 µM (inactive) | GI50 [4]: > 100 µM (inactive) | GI50 [5]: > 100 µM (inactive) | GI50 [6]: > 100 µM (inactive) | GI50 [7]: > 100 µM (inactive) | GI50 [8]: > 100 µM (inactive) | GI50 [9]: > 100 µM (inactive) | GI50 [10]: > 100 µM (inactive) | GI50 [11]: > 100 µM (inactive) | GI50 [14]: > 100 µM (inactive)

O=NN1C(c2ccccc2)C2CCCC(C2=O)C1c1ccccc1 (configuration not stated)
GI50 [1]: 7.53 µM (inactive) | GI50 [2]: 37.2 µM (inactive) | GI50 [3]: 22 µM (inactive) | GI50 [4]: 16 µM (inactive) | GI50 [5]: 28.3 µM (inactive) | GI50 [6]: 18.1 µM (inactive) | GI50 [7]: 43.9 µM (inactive) | GI50 [8]: 18.9 µM (inactive) | GI50 [9]: 23.8 µM (inactive) | GI50 [10]: 43.3 µM (inactive) | GI50 [11]: 34 µM (inactive) | GI50 [14]: 41.4 µM (inactive) | GI50 [12]: 29.3 µM

CN1CCCC2[C@@H]3CCC4c5nonc5CC[C@]4(C)C3CC[C@@]21C (some centres not stated)
GI50 [13]: > 100 µM (inactive) | GI50 [1]: > 100 µM (inactive) | GI50 [2]: > 100 µM (inactive) | GI50 [3]: > 100 µM (inactive) | GI50 [4]: 23.3 µM (inactive) | GI50 [6]: 38.1 µM (inactive) | GI50 [7]: > 100 µM (inactive) | GI50 [8]: 63.8 µM (inactive) | GI50 [9]: 93.3 µM (inactive) | GI50 [10]: 51.1 µM (inactive) | GI50 [14]: > 100 µM (inactive) | GI50 [12]: 57.7 µM

CCOC(=O)C1C=C2O[C@@H]3OC4(CCCCC4)O[C@@H]3C2[C@H]2C(=O)C=CC(=O)[C@@]12C(=O)OC (some centres not stated)
GI50 [13]: 18.1 µM (inactive) | GI50 [1]: 17.2 µM (inactive) | GI50 [2]: 17.1 µM (inactive) | GI50 [3]: 14.6 µM (inactive) | GI50 [4]: 14.5 µM (inactive) | GI50 [5]: 2.84 µM (inactive) | GI50 [6]: 6.9 µM (inactive) | GI50 [7]: 12.8 µM (inactive) | GI50 [8]: 16 µM (inactive) | GI50 [9]: 8.65 µM (inactive) | GI50 [10]: 16.6 µM (inactive) | GI50 [11]: 18.3 µM (inactive) | GI50 [14]: 16 µM (inactive) | GI50 [12]: 9.4 µM
